From ChEMBL document CHEMBL1136101, “An evaluation of a C-glucuronide as a liver targeting group: conjugate of a glucocorticoid antagonist” (Bioorg Med Chem Lett, 2003) come the findings set out here.

Data set [1] has as its target T1, Glucocorticoid receptor (Homo sapiens, UniProt P04150).
T1 sequence (P04150 whole entry): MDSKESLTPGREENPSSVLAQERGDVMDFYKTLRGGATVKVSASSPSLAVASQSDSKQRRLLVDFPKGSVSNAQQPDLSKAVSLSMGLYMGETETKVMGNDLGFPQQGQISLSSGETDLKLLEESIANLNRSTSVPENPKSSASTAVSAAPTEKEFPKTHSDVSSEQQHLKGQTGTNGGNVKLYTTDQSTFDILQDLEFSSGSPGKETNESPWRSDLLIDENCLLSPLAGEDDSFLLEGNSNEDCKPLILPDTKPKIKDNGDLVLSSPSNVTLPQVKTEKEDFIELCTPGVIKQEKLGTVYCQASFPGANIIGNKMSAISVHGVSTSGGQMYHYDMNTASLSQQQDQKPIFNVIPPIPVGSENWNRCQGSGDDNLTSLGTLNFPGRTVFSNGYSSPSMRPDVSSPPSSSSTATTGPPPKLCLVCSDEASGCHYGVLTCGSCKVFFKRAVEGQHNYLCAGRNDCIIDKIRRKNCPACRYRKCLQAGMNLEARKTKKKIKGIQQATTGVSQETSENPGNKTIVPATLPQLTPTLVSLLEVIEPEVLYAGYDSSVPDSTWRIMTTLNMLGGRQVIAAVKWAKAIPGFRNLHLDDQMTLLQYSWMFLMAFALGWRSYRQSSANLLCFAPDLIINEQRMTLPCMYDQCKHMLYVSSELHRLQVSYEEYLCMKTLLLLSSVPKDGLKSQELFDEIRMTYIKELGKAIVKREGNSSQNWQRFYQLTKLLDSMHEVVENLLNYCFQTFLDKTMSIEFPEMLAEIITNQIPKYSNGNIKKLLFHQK
The data set can be described thus: Inhibition of Dexamethasone stimulated transcriptional activity in CHO cells expressing glucocorticoid receptor. Format: functional, cell-based.

The nature of data set [2]: Half-life period was determined. Type of data set: ADME.
In data set [3] the target is T1, Glucocorticoid receptor. The data set can be described thus: Inhibition of Dexamethasone binding to Glucocorticoid receptor.
A short description of data set [4]: Plasma clearance by iv administration at a dose 5 mg/kg. The note with it: read-out: Clp (converted).
The nature of data set [5]: Plasma concentration at 7 hr after intravenous dosing. Format: ADME.
Data set [6] addresses T2, Glucocorticoid receptor (Rattus norvegicus, UniProt P06536).
T2 sequence (P06536 whole entry): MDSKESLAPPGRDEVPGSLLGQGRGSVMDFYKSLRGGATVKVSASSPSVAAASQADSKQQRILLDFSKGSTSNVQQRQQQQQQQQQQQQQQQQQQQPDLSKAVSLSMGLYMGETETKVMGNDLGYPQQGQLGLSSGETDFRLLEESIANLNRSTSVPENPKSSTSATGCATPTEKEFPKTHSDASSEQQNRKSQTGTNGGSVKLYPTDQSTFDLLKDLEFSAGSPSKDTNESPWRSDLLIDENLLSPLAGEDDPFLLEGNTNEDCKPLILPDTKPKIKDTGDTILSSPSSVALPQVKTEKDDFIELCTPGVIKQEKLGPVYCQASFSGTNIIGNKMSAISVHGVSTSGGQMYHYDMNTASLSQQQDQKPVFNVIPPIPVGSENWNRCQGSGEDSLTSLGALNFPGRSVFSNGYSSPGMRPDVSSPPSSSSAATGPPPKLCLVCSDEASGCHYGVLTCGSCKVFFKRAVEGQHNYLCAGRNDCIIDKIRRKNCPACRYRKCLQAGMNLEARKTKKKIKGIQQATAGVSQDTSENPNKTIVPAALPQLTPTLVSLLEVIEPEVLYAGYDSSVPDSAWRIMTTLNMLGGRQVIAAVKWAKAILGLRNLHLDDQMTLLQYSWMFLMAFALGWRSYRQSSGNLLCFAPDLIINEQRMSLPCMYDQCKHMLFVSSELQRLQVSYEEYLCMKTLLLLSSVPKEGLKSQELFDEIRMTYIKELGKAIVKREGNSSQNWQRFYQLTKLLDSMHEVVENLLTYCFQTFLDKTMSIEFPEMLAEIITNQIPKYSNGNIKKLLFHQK
Briefly: Inhibition of prednisilone-induced tyrosine aminotransferase (TAT) activity in rat hepatocytes. Type of data set: cell-based, Hepatocyte.

Turning to `CC#C[C@]1(O)CC[C@H]2[C@@H]3CCC4=CC(=O)CCC4=C3[C@@H](c3ccc(N(C)CCCC4OC(C(=O)O)C(O)C(O)C4O)cc3)C[C@@]21C` (stereo partly specified), the figures for the IC50 in data set [1], in data set [3] and in data set [6] were 0.55 µM, 0.0167 µM and 2.8 µM, respectively. The molecule further showed a half-life in data set [2] of 1.8 h. Besides, the clearance in data set [4] was 5.3 L/h/kg. The same molecule returned a concentration at 7 h in data set [5] of 3 ng/mL.

Usually IC50 stands for the concentration at which inhibition is half-maximal. Lower therefore signals inhibition by little substance. In general, half-life refers to the time needed for the level to fall by half in the phase considered.
